Test results published in ChEMBL document CHEMBL3603772, “Chemical Biology of Leucine-Rich Repeat Kinase 2 (LRRK2) Inhibitors” (J Med Chem, 2015).

Legend:
[1] = molecular target: Leucine-rich repeat serine/threonine-protein kinase 2 (Homo sapiens, UniProt Q5S007); experiment: Inhibition of LRRK2 (unknown origin)
[2] = Clearance in mouse at 1 mg/kg, iv; type: ADME, organism-based; conditions: in vivo
[3] = Inhibition of LRRK2 G2019S mutant-induced neuronal toxicity in rat cortical neurons
[4] = tested on: Brain; experiment: Druguptake in mouse brain at 1 mg/kg, iv; type: ADME, organism-based; conditions: in vivo
[5] = molecular target: Leucine-rich repeat serine/threonine-protein kinase 2 (Homo sapiens, UniProt Q5S007, G2019S); experiment: Inhibition of LRRK2 G2019S mutant in human HEK293 cells assessed as phosphorylation at Ser935; type: cell-based
Sequence of Leucine-rich repeat serine/threonine-protein kinase 2 (Homo sapiens, UniProt Q5S007, G2019S) (Q5S007 whole entry G2019S): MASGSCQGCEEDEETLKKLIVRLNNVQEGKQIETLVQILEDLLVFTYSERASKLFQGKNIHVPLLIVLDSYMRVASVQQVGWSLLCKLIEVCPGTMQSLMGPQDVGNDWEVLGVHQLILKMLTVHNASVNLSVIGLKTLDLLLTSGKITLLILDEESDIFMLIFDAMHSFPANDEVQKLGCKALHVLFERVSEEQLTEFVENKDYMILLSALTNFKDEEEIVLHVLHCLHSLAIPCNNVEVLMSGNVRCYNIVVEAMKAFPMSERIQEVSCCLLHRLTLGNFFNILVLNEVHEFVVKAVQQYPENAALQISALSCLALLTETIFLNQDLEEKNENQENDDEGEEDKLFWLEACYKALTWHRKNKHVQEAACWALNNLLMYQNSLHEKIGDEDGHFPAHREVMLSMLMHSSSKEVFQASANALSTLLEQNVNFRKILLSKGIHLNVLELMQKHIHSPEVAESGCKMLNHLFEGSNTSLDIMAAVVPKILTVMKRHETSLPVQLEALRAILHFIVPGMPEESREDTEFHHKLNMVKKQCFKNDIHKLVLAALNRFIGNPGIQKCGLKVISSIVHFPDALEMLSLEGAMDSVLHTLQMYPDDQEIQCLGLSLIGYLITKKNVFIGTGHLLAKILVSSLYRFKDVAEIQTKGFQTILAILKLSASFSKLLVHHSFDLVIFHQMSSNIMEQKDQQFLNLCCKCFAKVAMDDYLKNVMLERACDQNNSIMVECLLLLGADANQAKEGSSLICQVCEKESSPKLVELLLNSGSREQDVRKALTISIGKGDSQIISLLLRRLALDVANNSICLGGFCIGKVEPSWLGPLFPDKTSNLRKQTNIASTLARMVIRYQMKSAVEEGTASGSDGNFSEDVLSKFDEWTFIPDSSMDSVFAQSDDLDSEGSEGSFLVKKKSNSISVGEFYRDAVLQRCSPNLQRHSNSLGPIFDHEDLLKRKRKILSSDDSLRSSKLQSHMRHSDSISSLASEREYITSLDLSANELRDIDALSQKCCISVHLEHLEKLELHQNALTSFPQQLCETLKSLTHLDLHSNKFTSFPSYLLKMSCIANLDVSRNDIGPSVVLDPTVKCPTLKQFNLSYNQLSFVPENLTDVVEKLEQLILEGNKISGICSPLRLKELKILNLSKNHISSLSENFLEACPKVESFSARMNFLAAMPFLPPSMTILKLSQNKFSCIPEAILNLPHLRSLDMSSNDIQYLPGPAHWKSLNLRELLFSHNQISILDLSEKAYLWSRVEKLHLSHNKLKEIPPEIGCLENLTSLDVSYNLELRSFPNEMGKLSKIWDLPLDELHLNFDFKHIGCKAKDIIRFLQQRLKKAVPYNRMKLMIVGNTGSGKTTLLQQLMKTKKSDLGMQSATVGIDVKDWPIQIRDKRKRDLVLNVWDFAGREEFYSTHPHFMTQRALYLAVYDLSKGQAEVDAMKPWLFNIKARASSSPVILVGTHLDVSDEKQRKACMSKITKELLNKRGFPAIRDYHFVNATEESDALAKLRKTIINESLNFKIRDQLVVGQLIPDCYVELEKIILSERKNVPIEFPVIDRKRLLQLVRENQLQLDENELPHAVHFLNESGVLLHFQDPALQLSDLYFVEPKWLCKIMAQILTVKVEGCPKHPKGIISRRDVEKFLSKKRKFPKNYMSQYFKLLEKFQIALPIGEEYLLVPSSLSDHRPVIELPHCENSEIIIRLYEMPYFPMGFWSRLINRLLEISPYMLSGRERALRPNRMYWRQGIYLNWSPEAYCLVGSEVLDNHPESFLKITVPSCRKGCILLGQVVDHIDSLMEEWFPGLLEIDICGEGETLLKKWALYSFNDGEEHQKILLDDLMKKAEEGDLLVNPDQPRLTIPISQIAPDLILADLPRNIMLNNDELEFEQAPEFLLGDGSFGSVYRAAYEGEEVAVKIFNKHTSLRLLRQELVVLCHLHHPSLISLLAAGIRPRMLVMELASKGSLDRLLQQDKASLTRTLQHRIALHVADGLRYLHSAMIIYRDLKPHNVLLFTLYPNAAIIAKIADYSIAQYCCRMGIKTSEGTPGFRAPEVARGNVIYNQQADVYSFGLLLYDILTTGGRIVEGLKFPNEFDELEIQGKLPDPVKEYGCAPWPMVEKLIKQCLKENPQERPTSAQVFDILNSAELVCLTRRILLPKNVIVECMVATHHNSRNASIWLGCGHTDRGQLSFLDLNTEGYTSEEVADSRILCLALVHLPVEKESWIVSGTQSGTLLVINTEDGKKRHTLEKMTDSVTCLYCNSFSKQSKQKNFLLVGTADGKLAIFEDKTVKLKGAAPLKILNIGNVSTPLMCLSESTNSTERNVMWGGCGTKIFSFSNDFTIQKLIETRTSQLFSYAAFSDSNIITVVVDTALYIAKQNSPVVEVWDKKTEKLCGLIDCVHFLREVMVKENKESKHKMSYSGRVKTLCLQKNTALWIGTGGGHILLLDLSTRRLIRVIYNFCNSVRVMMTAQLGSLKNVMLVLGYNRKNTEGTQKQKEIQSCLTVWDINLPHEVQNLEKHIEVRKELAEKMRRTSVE

Sequence of Leucine-rich repeat serine/threonine-protein kinase 2 (Homo sapiens, UniProt Q5S007) (Q5S007 whole entry): as the sequence (Q5S007 whole entry G2019S) above, with S2019G counted along it

IC50 [1] [nM] | clearance [2] [mL/min/kg] | Drug uptake [4] [%] | IC50 [5] [nM] | SMILES | EC50 [3] [nM]
7 | 2.3 | 4 |  | COc1cc(N2CCOCC2)ccc1Nc1ncc(F)c(Nc2ccccc2NS(C)(=O)=O)n1 | 100
6 |  |  | 94 | CN1CCN(c2ccc(OCc3ccccc3)c(C(=O)Nc3cccnc3)c2)CC1 | 

SMILES | IC50 [1] [nM] | clearance [2] [mL/min/kg] | Drug uptake [4] [%] | IC50 [5] [nM] | EC50 [3] [nM]
COc1cc(C(=O)N2CCC(N3CCN(C)CC3)CC2)ccc1Nc1ncc2c(n1)N(C)c1ccccc1C(=O)N2C | 6 |  |  |  | 
